From US7879795B2, “Enhancement of tigecycline potency using efflux pump inhibitors” (Mpex Pharmaceuticals, Inc., priority 2004, dated 2011)

Tests used:
PAM 1020, wt = test: Tigecycline potentiation checkerboard assay, PAM 1020; type: cell-based, P. aeruginosa; set-up: Tigecycline MIC in the presence of Compound 21: unit not given here; details: PAM 1020
Method: (§1) The ability of compound 21 to increase susceptibility to tigecycline was also assessed. The tigecycline potentiating activity of compound 21 was assessed by the checkerboard assay (Antimicrobial Combinations, Antibiotics in Laboratory Medicine, ed. Victor Lorian, M.D., Fourth edition, 1996, pp 333-338, which is incorporated herein by reference in its entirety) using a broth micro-dilution method performed as recommended by the CSLI (Clinical and Laboratory Standards Institute, formerly NCCLS) guidelines (National Committee for Clinical Laboratory Standards 2003. Methods for Dilution Antimicrobial Susceptibility Tests for Bacteria That Grow Aerobically—Sixth Edition; Approved Standard. NCCLS Document M7-A6, Vol 20 No. 2). In this assay, multiple dilutions of the two drugs, compound 21 and tigecycline, were tested alone and in combination, at concentrations equal to, above and below their respective minimal inhibitory concentrations (MICs). […] The stock solution was further diluted in Mueller Hinton Broth (MHB). Stock solutions were stored at −80° C.
(§2) The checkerboard assay was performed in microtiter plates. Tigecycline was diluted in the x axis, each column containing a single concentration of tigecycline. Compound 21 was diluted in the y axis, each row containing an equal concentration of the EPI. […] The assay was performed in MHB with a final bacterial inoculum of 5×10^5 CFU/ml (from an early-log phase culture). The microtiter plates were incubated for 20 hours at 35° C. and then read using a microtiter plate reader (Molecular Devices) at 650 nm, as well as by visual observation using a microtiter plate-reading mirror.

[1] = test system: PAM 1626, Four pumps non-functional; test: Tigecycline potentiation checkerboard assay, PAM 1626; type: cell-based, P. aeruginosa; set-up: Tigecycline MIC in the presence of Compound 21: unit not given here; details: PAM 1626
Method: as §1, §2

[2] = test system: P. aeruginosa strain PAM 1032; test: Mouse model of P. aeruginosa sepsis infection (tigecycline 50% effective dose); type: in vivo
Method: Tigecycline and compound 21 were prepared in sterile 0.9% saline. Seventy Swiss-Webster mice (Harlan laboratories) with body weights ranging from 22 to 25 grams at the start of the study were used. Upon receipt, the animals were housed 5 per cage in a room with a controlled environment and were acclimated to laboratory conditions for at least 24 hours prior to the start of dosing. Animals were provided food and water ad libitum. The health status of the animals was determined during the acclimation period and unhealthy animals were not placed on study. Each animal was identified by marking their tails with indelible ink and each cage was identified by animal, group, and study number.
P. aeruginosa strain PAM 1032 was grown in Mueller-Hinton Broth (MHB) at 35° C. under constant aeration. After 20 hours, the inoculum was sub-cultured into fresh MHB and allowed to regrow at 35° C., under constant aeration, for 4 hours. The inoculum was adjusted to ca. 4×10^7 CFU/ml by correlation of absorbance at 600 nm with predetermined plate counts. The inoculum was then diluted 2-fold in 14% hog-gastric mucin (Sigma, St. Louis, Mo.) for a final inoculum concentration of 2×10^7 CFU/ml. […] At 0 and 2 hours following infection, tigecycline was administered by the subcutaneous route and compound 21 was administered by the intraperitoneal route. […] The susceptibility of the test strain (P. aeruginosa PAM1032, […] MexAB-OprM) to tigecycline was 4 ug/ml, the susceptibility of the test strain to tigecycline in the presence of 2.5 μg/mL of compound 21 was 0.25 μg/mL.

Citrobacter freundii 13 = test: Antibiotic MIC with fixed concentration of compound 21, Citrobacter freundii 13; type: cell-based
Method: (§3) To further characterize the clinical potential of tigecycline/EPI combinations, the microbiological activity of tigecycline in combination with compound 21 was investigated using clinical isolates of P. aeruginosa and other gram-negative bacteria. In several experiments, described below, the impact of a fixed concentration of compound 21 (2.5 μg/ml) on susceptibility to tigecycline was determined.
(§4) The impact of compound 21 on the activity of tigecycline against representative members of Enterobacteriacaea was also tested.

[3] = Solubility in water (stock solutions); details: stock solutions 10 mg/ml
[4] = test system: Klebsiella pneumonia, Proteus mirabilis, Morganella morganii, P. aeruginosa strains; test: Tigecycline susceptibility of various bacterial strains in combination with compound 21 (Example 85); type: cell-based; details: Example 85, written in present tense
Method: Standard CLSI methods for antimicrobial susceptibility testing, as outlined in National Committee for Clinical Laboratory Standards 2003, Methods for Dilution Antimicrobial Susceptibility Tests for Bacteria That Grow Aerobically—-6th ed., Approved Standard, NCCLS Document M7-A6, Vol 20 No. 2., are used to assess the activity of tigecycline in combination with compound 21. The following strains are tested: • Klebsiella pneumonia: G340, G595, G815, GC7335, GC7736, GC7737, tigecycline resistant mutants derived from G595 and G815 • Proteus mirabilis: G151, GC 7020, GC 6899, GC 6900, GC 7018, GC 7019 • Morganella morganii: G858, G1492, GC7676, GC7677, GC7743, GC7744 • P. aeruginosa: K767, K1523, K1525, XY1, XY3, K153, BXY1, BXY4, K1119, M1, M9, K1455.
Clinical isolates enriched with strains having a decreased susceptibility to tigecycline are also tested.

Klebsiella pneumonia 73 = test: Antibiotic MIC with fixed concentration of compound 21, Klebsiella pneumonia 73; type: cell-based
Method: as §3, §4

[5] = test system: Strain S41, a clinical isolate; test: microbe, parasite or virus in culture; type: cell-based, P. aeruginosa; details: strain S41
[6] = test system: laboratory strains of P. aeruginosa; test: Tigecycline susceptibility of laboratory strains of P. aeruginosa over-expressing or lacking efflux pumps; type: cell-based
Method: as §1, §2

[7] = test system: strains of Klebsiella, Enterobacter and Citrobacter; test: Potentiation of tigecycline against enterobacteria with decreased susceptibility to tigecycline; type: cell-based; details: in words
Method: as §3, §4

[8] = test system: strain PAM1723 of P. aeruginosa; type: in vitro ADME; details: in words
Method: Stability of compounds was also evaluated using a bioassay. The test compound at 320 μg/ml was treated with rabbit kidney supernatant for 0, 0.5, 1 and 2 hours.

[9] = azithromycin MIC with compound 21
[10] = levofloxacin MIC with compound 21 at […]
[11] = tigecycline MIC with compound 21 at […]

In the case of `NCCC[C@H](N)C(=O)N[C@H](Cc1ccc(C(F)(F)F)cc1)C(=O)Nc1cnc2ccccc2c1` [Compound 21, 2-(S),5-Diamino-pentanoic acid [1-(R)-(quinolin-3-ylcarbamoyl)-2-(4-trifluoromethyl-phenyl)-ethyl]amide], the “Tigecycline MIC in the presence of Compound 21” value (shortened to “Tigecycline MIC in the presence”) (PAM 1020, wt; Compound 21 0.625 μg/ml) is reported as 2, the “Tigecycline MIC in the presence” value (PAM 1020, wt; Compound 21 1.25 μg/ml) is reported as 1 and the “Tigecycline MIC in the presence” value (PAM 1020, wt; Compound 21 5 μg/ml) is reported as 0.25. The “Tigecycline MIC in the presence” value (PAM 1020, wt; Compound 21 10 μg/ml) was 0.25, the “Tigecycline MIC in the presence” value (PAM 1020, wt; Compound 21 20 μg/ml) was 0.25 and the “Tigecycline MIC in the presence” value (PAM 1020, wt; Compound 21 40 μg/ml) was 0.25. The “Tigecycline MIC in the presence” value (PAM 1020, wt; Compound 21 […]) was 0.5, the “Tigecycline MIC in the presence” value ([1]; Compound 21 0.625 μg/ml) was 0.25 and the “Tigecycline MIC in the presence” value ([1]; Compound 21 1.25 μg/ml) was 0.25. The “Tigecycline MIC in the presence” value ([1]; Compound 21 5 μg/ml) was 0.25, the “Tigecycline MIC in the presence” value ([1]; Compound 21 10 μg/ml) was 0.25 and the “Tigecycline MIC in the presence” value ([1]; Compound 21 20 μg/ml) was 0.5. For the same compound, the “Tigecycline MIC in the presence” value ([1]; Compound 21 […]) was 0.25, the “50% effective dose of tigecycline in combination with compound 21” value ([2]; mice, tigecycline SC, compound 21 IP at 0 and 2 hours) was “approximately 75 mg/k” and the “improvement of tigecycline 50% effective dose” value ([2]; with compound 21) was 2.5 fold. For the same compound, the “Azi + EPI (MIC)” value (Citrobacter freundii 13; [9]) was “≦0.125”, the “Levo + EPI at […] (MIC)” value (Citrobacter freundii 13; [10]) was 8 and the “Tig + EPI at […] (MIC)” value (Citrobacter freundii 13; [11]) was 0.125. The solubility in water [3] was “readily soluble in water”, the “effect on development of resistance to tigecycline” value [4] was “reduces the development of resistance” and the “effect on resistance to tigecycline in bacterial strains” value [4] was “decreases resistance to tigecycline”. For the same compound, the “effect on susceptibility of the strains to tigecycline” value [4] was “increases the susceptibility of the strains to tigecycline”, the “Azi + EPI (MIC)” value (Klebsiella pneumonia 73; [9]) was “≦0.125” and the “Levo + EPI at […] (MIC)” value (Klebsiella pneumonia 73; [10]) was 4. For the same compound, the “Tig + EPI at […] (MIC)” value (Klebsiella pneumonia 73; [11]) was 0.125, the “Tigecycline MIC with Compound 21 at 5 μg/ml” value [5] was 0.125 µg/mL and the “Mutation Frequency on Tigecycline at 4 μg/ml with Compound 21 at 10 μg/ml” value ([5]; 4× MIC) was <1.5 × 10^−10. The “reduction of the frequency of emergence of tigecycline resistance” value ([5]; compound 21 at 10 μg/ml) was “at least three orders of magnitude”, the “effect on activity of tigecycline against strains expressing efflux pumps” value ([6]; in words) was “increases activity to tigecycline” and the “concentration required to completely inhibit the efflux pumps” value ([6]; tigecycline checkerboard) was 2.5 µg/mL. The “potentiation of tigecycline against strains with decreased susceptibility” value [7] was “potentiated tigecycline”.
In the case of `NCCC[C@H](N)C(=O)N[C@H](CCc1ccccc1)C(=O)Nc1cnc2ccccc2c1` [Compound 3, 2-(S),5-Diamino-pentanoic acid [3-phenyl-1-(R)-(quinolin-3-ylcarbamoyl)-propyl]-amide], the “change of EPI activity after treatment with supernatant of rabbit kidney homogenate” value [8] is reported as “time-dependent reduction of the EPI activity”.
